Measured values published in ChEMBL document CHEMBL5113513, “Selective Inhibitors of Medium-Size S1' Pocket Matrix Metalloproteinases: A Stepping Stone of Future Drug Discovery” (J Med Chem, 2022).
One block for each compound: values may come before it.

How the values were obtained:
Collagenase 3 [1] = target: T1, Collagenase 3 (Homo sapiens, UniProt P45452); assay: Inhibition of human MMP-13 expressed in Escherichia coli BL21(DE3) using Mca-Pro-Leu-Gly-Leu-Dpa-Ala-Arg-NH2 as substrate preincubated for 30 mins followed by susbstrate addition by photon-counter spectrophotometer analysis
[2] = target: T2, Matrix metalloproteinase-14 (Homo sapiens, UniProt P50281); assay: Inhibition of human MMP-14 expressed in Escherichia coli BL21(DE3) using Mca-Pro-Leu-Gly-Leu-Dpa-Ala-Arg-NH2 as substrate preincubated for 30 mins followed by susbstrate addition by photon-counter spectrophotometer analysis
[3] = target: T3, Matrix metalloproteinase-9 (Homo sapiens, UniProt P14780); assay: Inhibition of human MMP-9 expressed in Escherichia coli BL21(DE3) using Mca-Pro-Leu-Gly-Leu-Dpa-Ala-Arg-NH2 as substrate preincubated for 30 mins followed by susbstrate addition by photon-counter spectrophotometer analysis
[4] = target: T4, 72 kDa type IV collagenase (Homo sapiens, UniProt P08253); assay: Inhibition of human MMP-2 expressed in Escherichia coli BL21(DE3) using Mca-Pro-Leu-Gly-Leu-Dpa-Ala-Arg-NH2 as substrate preincubated for 30 mins followed by susbstrate addition by photon-counter spectrophotometer analysis
Stromelysin-2 [5] = target: T5, Stromelysin-2 (Homo sapiens, UniProt P09238); assay: Inhibition of human MMP-10 expressed in Escherichia coli BL21(DE3) using Mca-Pro-Leu-Gly-Leu-Dpa-Ala-Arg-NH2 as substrate preincubated for 30 mins followed by susbstrate addition by photon-counter spectrophotometer analysis
Neutrophil collagenase [6] = target: T6, Neutrophil collagenase (Homo sapiens, UniProt P22894); assay: Inhibition of human MMP-8 expressed in Escherichia coli BL21(DE3) using Mca-Pro-Leu-Gly-Leu-Dpa-Ala-Arg-NH2 as substrate preincubated for 30 mins followed by susbstrate addition by photon-counter spectrophotometer analysis
Interstitial collagenase [7] = target: T7, Interstitial collagenase (Homo sapiens, UniProt P03956); assay: Inhibition of human MMP-1 expressed in Escherichia coli BL21(DE3) using Mca-Pro-Leu-Gly-Leu-Dpa-Ala-Arg-NH2 as substrate preincubated for 30 mins followed by susbstrate addition by photon-counter spectrophotometer analysis
T7 sequence (P03956 whole entry): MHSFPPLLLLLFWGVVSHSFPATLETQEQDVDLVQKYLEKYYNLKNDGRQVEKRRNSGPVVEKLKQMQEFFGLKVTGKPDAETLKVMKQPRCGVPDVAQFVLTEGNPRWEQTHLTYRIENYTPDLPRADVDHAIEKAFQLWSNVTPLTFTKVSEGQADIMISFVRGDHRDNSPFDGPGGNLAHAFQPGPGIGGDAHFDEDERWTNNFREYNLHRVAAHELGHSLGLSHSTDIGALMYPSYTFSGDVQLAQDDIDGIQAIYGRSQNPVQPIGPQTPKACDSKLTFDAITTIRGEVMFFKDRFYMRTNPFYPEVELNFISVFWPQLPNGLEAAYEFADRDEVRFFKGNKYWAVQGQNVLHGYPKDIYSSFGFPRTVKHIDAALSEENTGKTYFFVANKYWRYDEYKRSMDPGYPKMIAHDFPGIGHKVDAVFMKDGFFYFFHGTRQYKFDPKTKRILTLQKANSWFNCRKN

Stromelysin-1 [8] = target: T8, Stromelysin-1 (Homo sapiens, UniProt P08254); assay: Inhibition of human MMP-3 expressed in Escherichia coli BL21(DE3) using Mca-Pro-Leu-Gly-Leu-Dpa-Ala-Arg-NH2 as substrate preincubated for 30 mins followed by susbstrate addition by photon-counter spectrophotometer analysis
Matrilysin [9] = target: T9, Matrilysin (Homo sapiens, UniProt P09237); assay: Inhibition of human MMP-7 expressed in Escherichia coli BL21(DE3) using Mca-Pro-Leu-Gly-Leu-Dpa-Ala-Arg-NH2 as substrate preincubated for 30 mins followed by susbstrate addition by photon-counter spectrophotometer analysis
T9 sequence (P09237 whole entry): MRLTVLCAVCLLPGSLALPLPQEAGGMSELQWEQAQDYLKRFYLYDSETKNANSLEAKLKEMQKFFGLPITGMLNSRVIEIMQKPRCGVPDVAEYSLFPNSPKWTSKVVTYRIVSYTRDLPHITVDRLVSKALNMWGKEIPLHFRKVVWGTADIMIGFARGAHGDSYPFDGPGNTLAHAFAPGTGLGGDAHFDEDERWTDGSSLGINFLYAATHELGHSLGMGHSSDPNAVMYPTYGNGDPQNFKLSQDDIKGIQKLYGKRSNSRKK

[10] = target: T3, Matrix metalloproteinase-9; assay: Inhibition of MMP-9 (unknown origin) using Mca-Pro-Leu-Gly-Leu-Dpa-Ala-Arg-NH2 as substrate by fluorimetric assay
[11] = target: T4, 72 kDa type IV collagenase; assay: Inhibition of MMP-2 (unknown origin) using Mca-Pro-Leu-Gly-Leu-Dpa-Ala-Arg-NH2 as substrate by fluorimetric assay
[12] = target: T2, Matrix metalloproteinase-14; assay: Inhibition of MMP-14 (unknown origin)
Matrilysin [13] = target: T9, Matrilysin; assay: Inhibition of MMP-7 (unknown origin)
[14] = target: T4, 72 kDa type IV collagenase
[15] = target: T3, Matrix metalloproteinase-9; assay: Inhibition of MMP-9 (unknown origin)
Interstitial collagenase [16] = target: T7, Interstitial collagenase; assay: Inhibition of MMP-1 (unknown origin)
Stromelysin-1 [17] = target: T8, Stromelysin-1; assay: Inhibition of MMP-3 (unknown origin)
Collagenase 3 [18] = target: T1, Collagenase 3
Description: Inhibition of MMP-13 (unknown origin)

[19] = target: T3, Matrix metalloproteinase-9; assay: Inhibition of MMP-9 (unknown origin) catalytic activity using Ac-PLG-[2-mercapto-4-methylpentanoyl]-LG-OC2H5 as substrate and measured upto 30 mins by microplate reader analysis
[20] = target: T4, 72 kDa type IV collagenase; assay: Inhibition of MMP-2 (unknown origin) catalytic activity using Ac-PLG-[2-mercapto-4-methylpentanoyl]-LG-OC2H5 as substrate and measured upto 30 mins by microplate reader analysis
Neutrophil collagenase [21] = target: T6, Neutrophil collagenase; assay: Inhibition of MMP-8 (unknown origin)
[22] = target: Macrophage metalloelastase (Homo sapiens, UniProt P39900); assay: Inhibition of MMP-12 (unknown origin)
Stromelysin-2 [23] = target: T5, Stromelysin-2; assay: Inhibition of MMP-10 (unknown origin)
HT-1080 = assay: Inhibition of cell invasion in human HT-1080 cells for 24 hrs by Calcein AM staining based fluorometric analysis; format: functional; settings: HT-1080, 24 h
Neutrophil collagenase [24] = target: T6, Neutrophil collagenase; assay: Inhibition of recombinant human MMP-8 for 3 hrs using colorimetric substrate by ELISA

T4 sequence (P08253 whole entry): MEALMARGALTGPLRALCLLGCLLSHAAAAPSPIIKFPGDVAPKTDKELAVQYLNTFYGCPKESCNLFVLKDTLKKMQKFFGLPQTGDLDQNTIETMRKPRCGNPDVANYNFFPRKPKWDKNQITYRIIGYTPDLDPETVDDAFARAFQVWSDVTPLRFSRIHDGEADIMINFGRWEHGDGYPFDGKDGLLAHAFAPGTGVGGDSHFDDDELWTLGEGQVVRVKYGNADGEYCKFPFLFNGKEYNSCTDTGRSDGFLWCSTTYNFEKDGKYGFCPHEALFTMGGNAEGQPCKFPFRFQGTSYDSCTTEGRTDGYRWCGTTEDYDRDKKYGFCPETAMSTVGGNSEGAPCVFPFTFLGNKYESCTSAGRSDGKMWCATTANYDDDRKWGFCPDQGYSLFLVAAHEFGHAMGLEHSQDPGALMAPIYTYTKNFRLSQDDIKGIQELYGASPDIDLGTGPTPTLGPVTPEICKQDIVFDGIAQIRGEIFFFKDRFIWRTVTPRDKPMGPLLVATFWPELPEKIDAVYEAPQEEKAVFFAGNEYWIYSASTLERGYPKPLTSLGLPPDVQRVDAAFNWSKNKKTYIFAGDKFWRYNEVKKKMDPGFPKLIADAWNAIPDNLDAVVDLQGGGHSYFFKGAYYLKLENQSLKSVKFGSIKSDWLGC
T3 sequence (P14780 whole entry): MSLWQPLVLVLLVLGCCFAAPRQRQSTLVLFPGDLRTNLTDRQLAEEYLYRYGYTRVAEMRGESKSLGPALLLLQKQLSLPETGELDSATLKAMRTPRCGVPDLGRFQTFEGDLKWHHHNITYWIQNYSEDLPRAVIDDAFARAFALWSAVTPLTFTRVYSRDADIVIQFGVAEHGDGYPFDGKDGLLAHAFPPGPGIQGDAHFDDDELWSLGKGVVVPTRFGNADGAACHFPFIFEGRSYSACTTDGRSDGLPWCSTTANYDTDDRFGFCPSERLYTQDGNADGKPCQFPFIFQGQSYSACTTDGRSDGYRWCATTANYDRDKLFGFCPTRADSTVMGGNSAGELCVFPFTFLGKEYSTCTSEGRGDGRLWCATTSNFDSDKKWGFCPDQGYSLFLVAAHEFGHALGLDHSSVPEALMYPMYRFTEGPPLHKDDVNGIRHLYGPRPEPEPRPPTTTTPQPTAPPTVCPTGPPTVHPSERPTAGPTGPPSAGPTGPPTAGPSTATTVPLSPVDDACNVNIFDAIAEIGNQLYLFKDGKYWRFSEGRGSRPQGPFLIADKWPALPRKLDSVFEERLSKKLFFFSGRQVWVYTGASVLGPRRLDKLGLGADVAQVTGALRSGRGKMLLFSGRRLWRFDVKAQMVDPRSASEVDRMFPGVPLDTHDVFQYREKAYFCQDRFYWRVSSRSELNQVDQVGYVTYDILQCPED
T6 sequence (P22894 whole entry): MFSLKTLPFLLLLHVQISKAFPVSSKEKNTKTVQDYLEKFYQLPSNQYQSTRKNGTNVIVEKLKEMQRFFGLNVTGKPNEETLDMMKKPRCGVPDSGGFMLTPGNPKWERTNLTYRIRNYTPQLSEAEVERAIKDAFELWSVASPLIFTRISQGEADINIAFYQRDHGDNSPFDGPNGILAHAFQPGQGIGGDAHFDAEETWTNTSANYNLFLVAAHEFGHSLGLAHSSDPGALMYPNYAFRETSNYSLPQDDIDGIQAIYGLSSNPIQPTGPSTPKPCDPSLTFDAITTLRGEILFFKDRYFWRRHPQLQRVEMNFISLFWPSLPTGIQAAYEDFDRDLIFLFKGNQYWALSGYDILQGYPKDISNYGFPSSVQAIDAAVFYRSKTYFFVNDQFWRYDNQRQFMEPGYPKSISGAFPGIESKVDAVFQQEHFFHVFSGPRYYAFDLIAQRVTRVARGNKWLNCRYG
T8 sequence (P08254 whole entry): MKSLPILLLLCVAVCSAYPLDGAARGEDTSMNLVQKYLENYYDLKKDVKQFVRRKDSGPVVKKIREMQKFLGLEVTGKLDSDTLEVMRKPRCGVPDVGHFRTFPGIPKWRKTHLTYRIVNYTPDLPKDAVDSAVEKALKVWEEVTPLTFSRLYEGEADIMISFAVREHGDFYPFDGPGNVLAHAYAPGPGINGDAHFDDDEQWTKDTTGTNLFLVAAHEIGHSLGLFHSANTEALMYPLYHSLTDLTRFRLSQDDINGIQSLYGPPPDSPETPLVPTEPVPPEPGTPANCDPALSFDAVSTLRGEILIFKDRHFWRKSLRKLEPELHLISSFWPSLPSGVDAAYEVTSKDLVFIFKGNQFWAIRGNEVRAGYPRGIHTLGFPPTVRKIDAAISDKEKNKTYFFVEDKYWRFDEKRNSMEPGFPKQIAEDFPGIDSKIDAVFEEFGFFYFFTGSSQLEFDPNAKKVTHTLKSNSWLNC
T5 sequence (P09238 whole entry): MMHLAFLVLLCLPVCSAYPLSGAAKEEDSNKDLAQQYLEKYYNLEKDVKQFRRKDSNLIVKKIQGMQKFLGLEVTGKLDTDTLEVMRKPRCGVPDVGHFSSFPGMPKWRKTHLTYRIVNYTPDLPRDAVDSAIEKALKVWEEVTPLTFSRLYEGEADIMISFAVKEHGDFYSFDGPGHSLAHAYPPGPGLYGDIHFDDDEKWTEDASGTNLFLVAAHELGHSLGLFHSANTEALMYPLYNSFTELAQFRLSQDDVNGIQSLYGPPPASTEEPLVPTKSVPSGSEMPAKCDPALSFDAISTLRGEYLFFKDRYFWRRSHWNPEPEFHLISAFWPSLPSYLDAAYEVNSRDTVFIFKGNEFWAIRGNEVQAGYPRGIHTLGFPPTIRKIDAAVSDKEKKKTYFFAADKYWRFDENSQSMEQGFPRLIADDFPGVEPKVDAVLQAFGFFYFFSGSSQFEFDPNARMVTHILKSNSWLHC
Chain of Macrophage metalloelastase (P39900 whole entry): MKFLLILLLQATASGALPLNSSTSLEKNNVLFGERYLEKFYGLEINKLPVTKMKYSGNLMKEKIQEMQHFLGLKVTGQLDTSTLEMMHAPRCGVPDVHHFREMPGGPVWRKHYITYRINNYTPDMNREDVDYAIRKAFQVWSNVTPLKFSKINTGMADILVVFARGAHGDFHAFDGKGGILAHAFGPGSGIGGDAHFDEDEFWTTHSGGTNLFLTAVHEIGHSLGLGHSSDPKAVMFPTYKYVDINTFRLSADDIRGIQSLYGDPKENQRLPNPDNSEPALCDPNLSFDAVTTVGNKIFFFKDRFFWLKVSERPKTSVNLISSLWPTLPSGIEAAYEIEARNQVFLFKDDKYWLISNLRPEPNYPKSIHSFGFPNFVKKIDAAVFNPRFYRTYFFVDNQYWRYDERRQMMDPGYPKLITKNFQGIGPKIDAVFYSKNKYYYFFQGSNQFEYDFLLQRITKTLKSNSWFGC

SMILES: NC(=O)[C@H](CCC(=O)O)NC(=O)[C@@H](CCC(=O)O)NC(=O)CCc1cc(-c2ccc(-c3cccc(Cl)c3)cc2)no1
Ki (Collagenase 3 [1]): 40 nM
Ki [2]: 2060 nM
Ki [3]: 565 nM
Ki [4]: 76 nM
Ki (Stromelysin-2 [5]): 48 nM
Ki (Neutrophil collagenase [6]): 181 nM
Ki (Interstitial collagenase [7]): 17900 nM
Ki (Stromelysin-1 [8]): 62 nM
Ki (Matrilysin [9]): 1200 nM

SMILES: CNC(=O)[C@@H](NC(=O)[C@H](CC(C)C)[C@H](O)C(=O)NO)C(C)(C)C
IC50 [12]: 1.8 nM

SMILES: CO[C@H](C(=O)NO)[C@@H](CC(C)C)C(=O)N[C@H](C(=O)Nc1ccccn1)C(C)(C)C [SOLIMASTAT]
IC50 (Matrilysin [13]): 5 nM
IC50 [14]: 80 nM
IC50 [15]: 70 nM

SMILES: CNC(=O)[C@@H](NC(=O)[C@H](CC(C)C)NC(=O)[C@H](S)CCN1C(=O)N(C)C(C)(C)C1=O)C(C)(C)C
IC50 (Collagenase 3 [18]): 4 nM
IC50 [14]: 41 nM
IC50 (Interstitial collagenase [16]): 25 nM
IC50 (Stromelysin-1 [17]): 157 nM
IC50 [15]: 25 nM

SMILES: O=C(NC1CCC1)P(=O)(O)O [(CYCLOBUTYLAMINO)CARBONYLPHOSPHONIC ACID]
IC50 (Neutrophil collagenase [24]): 4 nM

SMILES: CC(=O)Nc1ccc(Oc2ccc(S(=O)(=O)CC3CS3)cc2)cc1 (stereo unspecified)
Ki (Interstitial collagenase [16]): > 154000 nM
Ki (Stromelysin-1 [17]): > 188000 nM
Ki [12]: > 230000 nM

SMILES: CN1C(=O)N(C[C@H](C(=O)NO)[C@H](CC2CCCC2)C(=O)N2CCCCC2)C(=O)C1(C)C
Ki (Neutrophil collagenase [21]): 4 nM

Next, values leading:

IC50 [10]: 40000 nM
IC50 [11]: 900 nM
SMILES: NCCCCC(NS(=O)(=O)c1ccc(-c2ccccc2)cc1)C(=O)O (stereo unspecified)

IC50 (Matrilysin [13]): 10000 nM
IC50 [14]: 0.41 nM
IC50 (Interstitial collagenase [16]): > 3000 nM
IC50 (Stromelysin-1 [17]): 130 nM
IC50 [12]: 7.7 nM
IC50 [15]: 16 nM
SMILES: CC(C)ON([C@@H](CCNC(=O)OCc1ccccc1)C(=O)NO)S(=O)(=O)c1ccc(-c2ccccc2)cc1

Ki (Interstitial collagenase [16]): 4950 nM
SMILES: COc1ccc(-c2ccc(CN3C(C(=O)NO)CCS3(=O)=O)cc2)cc1 (stereo unspecified)

IC50 [10]: 800 nM
IC50 [11]: 5 nM
SMILES: O=C(NCCCCC(NS(=O)(=O)c1ccc(-c2ccc(Cl)cc2)cc1)C(=O)O)OCc1ccccc1 (stereo unspecified)

IC50 [19]: 11.3 nM
IC50 [20]: 0.3 nM
IC50 (Neutrophil collagenase [21]): 6.1 nM
IC50 (Matrilysin [13]): 70 nM
IC50 (Collagenase 3 [18]): 1.4 nM
IC50 (Interstitial collagenase [16]): > 1000 nM
IC50 [22]: 1.2 nM
IC50 (Stromelysin-1 [17]): 9.6 nM
IC50 (Stromelysin-2 [23]): 7.8 nM
IC50 [12]: 8.2 nM
SMILES: COc1ccc(-c2cn(-c3ccc(S(=O)(=O)C4(C(=O)NO)CCOCC4)cc3)nn2)cc1

IC50 (HT-1080): 1000 nM
SMILES: COc1ccccc1Nc1nc(-c2sc(NC(C)=O)nc2C)cs1

IC50 [15]: 1.19 nM
SMILES: CCNC(=O)CCC(NS(=O)(=O)c1ccc(-c2ccccc2)cc1)C(=O)O (stereo unspecified)
